Experiments:
[1] = target: T1, Tyrosine-protein phosphatase non-receptor type 1 (Homo sapiens, UniProt P18031); test: Inhibitory activity tested against Protein-tyrosine phosphatase 1B (PTP1B)
T1 sequence (P18031 whole entry): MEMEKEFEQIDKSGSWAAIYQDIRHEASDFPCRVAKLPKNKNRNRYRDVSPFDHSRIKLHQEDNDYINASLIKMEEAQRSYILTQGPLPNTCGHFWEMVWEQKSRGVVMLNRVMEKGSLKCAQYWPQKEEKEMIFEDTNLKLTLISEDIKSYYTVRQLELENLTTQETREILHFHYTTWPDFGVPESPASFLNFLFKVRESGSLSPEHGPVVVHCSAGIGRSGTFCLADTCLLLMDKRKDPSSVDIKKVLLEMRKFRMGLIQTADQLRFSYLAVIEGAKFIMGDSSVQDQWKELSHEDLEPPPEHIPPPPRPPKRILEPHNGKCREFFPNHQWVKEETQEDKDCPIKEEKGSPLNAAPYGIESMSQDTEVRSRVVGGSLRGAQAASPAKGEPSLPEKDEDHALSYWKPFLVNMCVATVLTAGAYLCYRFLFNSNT

[2] = target: T2, Tyrosine-protein phosphatase non-receptor type 2 (Homo sapiens, UniProt P17706); test: Inhibitory activity tested against T-cell Protein tyrosine phosphatase 2 (TCPTP)
T2 sequence (P17706 whole entry): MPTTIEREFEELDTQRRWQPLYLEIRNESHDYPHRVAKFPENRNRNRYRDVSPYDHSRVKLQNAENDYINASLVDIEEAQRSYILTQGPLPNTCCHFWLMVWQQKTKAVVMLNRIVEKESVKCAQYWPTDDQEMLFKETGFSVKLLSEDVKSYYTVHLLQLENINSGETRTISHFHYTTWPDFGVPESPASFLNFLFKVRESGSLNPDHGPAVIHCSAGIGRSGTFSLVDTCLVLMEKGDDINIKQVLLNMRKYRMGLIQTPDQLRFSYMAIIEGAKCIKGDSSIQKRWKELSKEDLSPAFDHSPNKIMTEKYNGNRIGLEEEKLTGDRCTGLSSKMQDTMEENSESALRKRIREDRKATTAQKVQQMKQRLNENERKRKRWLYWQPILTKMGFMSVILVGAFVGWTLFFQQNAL

[3] = target: T3, M-phase inducer phosphatase 3 (Homo sapiens, UniProt P30307); test: Inhibition of Cell division cycle 25 (Cdc25) phosphatase
T3 sequence (P30307 whole entry): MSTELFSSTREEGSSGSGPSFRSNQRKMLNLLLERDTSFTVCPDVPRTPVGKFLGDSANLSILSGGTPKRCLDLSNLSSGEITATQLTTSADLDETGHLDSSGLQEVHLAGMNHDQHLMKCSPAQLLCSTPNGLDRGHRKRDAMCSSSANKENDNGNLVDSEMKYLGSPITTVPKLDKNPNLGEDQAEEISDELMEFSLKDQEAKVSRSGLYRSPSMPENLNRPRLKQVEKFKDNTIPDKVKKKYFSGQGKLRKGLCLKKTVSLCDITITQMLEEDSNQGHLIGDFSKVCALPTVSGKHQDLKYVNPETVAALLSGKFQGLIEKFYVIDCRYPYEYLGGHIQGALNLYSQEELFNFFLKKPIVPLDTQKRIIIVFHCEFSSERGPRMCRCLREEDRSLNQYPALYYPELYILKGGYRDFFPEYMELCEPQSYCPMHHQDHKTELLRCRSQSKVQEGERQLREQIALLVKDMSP

[4] = target: T4, Receptor-type tyrosine-protein phosphatase C (Homo sapiens, UniProt P08575); test: Inhibition of common leukocyte antigen CD45 phosphatase
T4 sequence (P08575 whole entry): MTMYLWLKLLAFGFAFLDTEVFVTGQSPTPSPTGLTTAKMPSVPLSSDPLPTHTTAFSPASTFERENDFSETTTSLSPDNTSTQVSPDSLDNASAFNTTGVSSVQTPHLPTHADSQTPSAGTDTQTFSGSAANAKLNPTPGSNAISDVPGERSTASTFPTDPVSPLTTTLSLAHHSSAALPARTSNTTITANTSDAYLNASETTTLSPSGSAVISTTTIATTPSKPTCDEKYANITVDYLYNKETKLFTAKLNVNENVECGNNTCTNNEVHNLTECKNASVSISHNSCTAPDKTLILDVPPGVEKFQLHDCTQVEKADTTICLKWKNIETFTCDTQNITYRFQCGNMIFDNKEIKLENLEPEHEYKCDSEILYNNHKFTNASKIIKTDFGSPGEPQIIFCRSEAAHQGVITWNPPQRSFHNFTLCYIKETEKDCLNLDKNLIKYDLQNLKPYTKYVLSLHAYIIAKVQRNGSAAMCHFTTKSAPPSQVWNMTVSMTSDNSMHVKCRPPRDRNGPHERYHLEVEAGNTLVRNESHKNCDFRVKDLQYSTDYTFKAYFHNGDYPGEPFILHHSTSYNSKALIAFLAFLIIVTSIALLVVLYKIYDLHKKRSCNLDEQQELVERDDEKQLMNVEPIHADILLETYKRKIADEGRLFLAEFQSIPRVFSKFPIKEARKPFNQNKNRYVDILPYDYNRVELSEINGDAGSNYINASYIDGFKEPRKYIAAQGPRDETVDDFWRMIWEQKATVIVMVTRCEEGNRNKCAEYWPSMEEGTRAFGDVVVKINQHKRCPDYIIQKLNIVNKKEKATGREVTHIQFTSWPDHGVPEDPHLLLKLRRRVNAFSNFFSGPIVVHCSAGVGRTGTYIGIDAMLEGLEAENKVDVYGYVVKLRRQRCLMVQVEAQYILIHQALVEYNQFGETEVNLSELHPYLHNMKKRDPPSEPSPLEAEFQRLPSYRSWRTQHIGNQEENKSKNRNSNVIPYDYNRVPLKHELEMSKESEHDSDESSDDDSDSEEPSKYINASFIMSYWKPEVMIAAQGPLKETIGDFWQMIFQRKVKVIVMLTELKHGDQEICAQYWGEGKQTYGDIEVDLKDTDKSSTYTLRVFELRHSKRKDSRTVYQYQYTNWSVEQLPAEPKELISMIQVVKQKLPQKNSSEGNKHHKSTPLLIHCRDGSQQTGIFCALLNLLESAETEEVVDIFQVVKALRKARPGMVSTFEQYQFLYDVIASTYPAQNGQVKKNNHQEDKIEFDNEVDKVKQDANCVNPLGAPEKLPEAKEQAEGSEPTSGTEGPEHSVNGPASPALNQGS

[5] = Inhibition of SHP-2 phosphatase
[6] = Inhibition of LAR (leukocyte common antigen-related) phosphatase

| Ki [1] | Ki [2] | SMILES | also measured |
| --- | --- | --- | --- |
| 470 nM | 370 nM | CCc1cc(CC(NC(C)=O)C(=O)NCCCCC(=O)N[C@@H](CCS(C)(=O)=O)C(=O)O)ccc1N(C(=O)C(=O)O)c1ccccc1C(=O)O (stereo not given in full) | – |
| 710 nM | 820 nM | CCc1cc(CC(NC(C)=O)C(=O)NCCCCC(=O)N[C@@H](CCCCN)C(=O)O)ccc1N(C(=O)C(=O)O)c1ccccc1C(=O)O (stereo not given in full) | – |
| 1300 nM | 700 nM | CCc1cc(CC(NC(C)=O)C(=O)NCCCCC(=O)NC(Cc2ccccc2)C(N)=O)ccc1N(C(=O)C(=O)O)c1ccccc1C(=O)O (stereo not given) | – |
| 120 nM | 240 nM | CCCC[C@H](NC(=O)CCCCNC(=O)C(Cc1ccc(N(C(=O)C(=O)O)c2ccccc2C(=O)O)c(CC)c1)NC(C)=O)C(=O)O (stereo not given in full) | – |
| 430 nM | 400 nM | CCc1cc(CC(NC(C)=O)C(=O)NCCCCC(=O)N[C@H](C(=O)O)C(C)CC)ccc1N(C(=O)C(=O)O)c1ccccc1C(=O)O (stereo not given in full) | – |
| 540 nM | 450 nM | CCc1cc(CC(NC(C)=O)C(=O)NCc2ccc([N+](=O)[O-])cc2)ccc1N(C(=O)C(=O)O)c1ccccc1C(=O)O (stereo not given) | – |
| – | – | CCc1cc(CC(NC(C)=O)C(=O)NCCCCC(=O)N[C@@H](CCSC)C(=O)O)ccc1N(C(=O)C(=O)O)c1ccccc1C(=O)O (stereo not given in full) | Ki [3]: > 300 µM; Ki [4]: > 300 µM; Ki [5]: 73.2 µM; Ki [6]: 8.75 µM |
| 1200 nM | 1500 nM | CCc1cc(CC(NC(C)=O)C(=O)NCc2ccc(Cl)cc2)ccc1N(C(=O)C(=O)O)c1ccccc1C(=O)O (stereo not given) | – |
| 1700 nM | – | CCc1cc(CC(NC(C)=O)C(=O)NCCCCC(=O)N[C@H](CCSC)C(=O)O)ccc1N(C(=O)C(=O)O)c1ccccc1C(=O)O (stereo not given in full) | – |
| 540 nM | 670 nM | CCc1cc(CC(NC(C)=O)C(=O)NCCCCC(=O)N[C@@H](CCSC)C(=O)OC)ccc1N(C(=O)C(=O)O)c1ccccc1C(=O)O (stereo not given in full) | – |
| 3400 nM | 1400 nM | CCc1cc(CC(NC(C)=O)C(=O)NCCCCC(=O)NCCc2ccccc2)ccc1N(C(=O)C(=O)O)c1ccccc1C(=O)O (stereo not given) | – |
| 2500 nM | 2200 nM | CCc1cc(CC(NC(C)=O)C(=O)NCCCCC(=O)O)ccc1N(C(=O)C(=O)O)c1ccccc1C(=O)O (stereo not given) | – |
| 4700 nM | 3600 nM | CCc1cc(CC(NC(C)=O)C(=O)NCc2ccc(OC)cc2)ccc1N(C(=O)C(=O)O)c1ccccc1C(=O)O (stereo not given) | – |
| 330 nM | 270 nM | CCc1cc(CC(NC(C)=O)C(=O)NCCCCC(=O)N[C@@H](CCC(N)=O)C(=O)O)ccc1N(C(=O)C(=O)O)c1ccccc1C(=O)O (stereo not given in full) | – |
| 140 nM | 160 nM | CCc1cc(CC(NC(C)=O)C(=O)NCCCCC(=O)N[C@@H](Cc2ccccc2)C(=O)O)ccc1N(C(=O)C(=O)O)c1ccccc1C(=O)O (stereo not given in full) | – |
| 250 nM | 290 nM | CCc1cc(CC(NC(C)=O)C(=O)NCCCCC(=O)N[C@H](C(=O)O)C2CCCCC2)ccc1N(C(=O)C(=O)O)c1ccccc1C(=O)O (stereo not given in full) | – |
| 130 nM | 510 nM | CCSCC[C@H](NC(=O)CCCCNC(=O)C(Cc1ccc(N(C(=O)C(=O)O)c2ccccc2C(=O)O)c(CC)c1)NC(C)=O)C(=O)O (stereo not given in full) | – |
